Reference: patent US12384751B2, “Allosteric activators of the ALPHA1A-adrenergic receptor” (The Cleveland Clinic Foundation, priority 2019, dated 2025)
“Also recorded” adds a separate entry of the source.

What was measured:
α2-ARs = assay: Radioligand binding at α2-ARs
Procedure: Characterization: Binding affinity. Using AR null stably-transfected cell lines that each express only one of the three individual α1-AR subtypes, compounds are characterized for their selectivity for the α1A-AR in radioligand binding studies. To be sure of no cross-reactivity, binding affinity against the α2-ARs and β-ARs are also measured. Details for such procedures are found generally at references 25-26, 94-98, all of which are herein incorporated by reference.

α1D-AR [1] = target: T1, α1D-AR (Homo sapiens, UniProt P25100); assay: Competition binding with [125I]HEAT at α1D-AR
T1 construct: expressed in transfected cells; host or cells: Rat-1 fibroblast cells
T1 sequence (P25100 1-572): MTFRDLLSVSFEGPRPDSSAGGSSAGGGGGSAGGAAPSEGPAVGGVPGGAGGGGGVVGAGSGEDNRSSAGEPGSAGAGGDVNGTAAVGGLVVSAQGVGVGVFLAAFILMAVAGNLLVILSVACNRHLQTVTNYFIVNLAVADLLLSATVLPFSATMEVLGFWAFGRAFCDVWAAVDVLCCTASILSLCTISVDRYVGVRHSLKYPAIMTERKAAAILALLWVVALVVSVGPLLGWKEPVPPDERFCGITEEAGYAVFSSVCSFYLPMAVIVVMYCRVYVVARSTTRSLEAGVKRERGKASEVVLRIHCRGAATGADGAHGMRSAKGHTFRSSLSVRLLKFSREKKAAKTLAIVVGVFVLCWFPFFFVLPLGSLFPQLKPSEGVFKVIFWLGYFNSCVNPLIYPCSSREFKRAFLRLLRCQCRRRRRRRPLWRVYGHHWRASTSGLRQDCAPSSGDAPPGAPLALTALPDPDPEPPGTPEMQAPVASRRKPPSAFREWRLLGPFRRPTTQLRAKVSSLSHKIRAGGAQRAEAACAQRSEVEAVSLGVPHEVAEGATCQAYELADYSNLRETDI
Procedure: Competition binding assays: These compounds were characterized for their ligand binding properties at the α1-AR subtypes. The binding affinities of Compounds 1-10 were determined in a series of competition-binding experiments with the α1-AR-selective antagonist [^125I]HEAT as the radioligand. Assays were performed in duplicate in HEM buffer, in a total assay volume of 1000 μl. Radioligand binding assays are composed of 5 ug of membranes, harvested from Rat-1 fibroblast cells expressing only one of the alpha1-AR subtypes, HEM buffer containing GTP (composed of 20 mM HEPES, pH 7.4, 1.4 mM EGTA, 12.5 mM MgCl2, pH to 7.4), 0.5 mM GTP, 35-80 pM^125I-HEAT, and various doses of norepinephrine or epinephrine and incubated with shaking at 25° C. for 1-2 hours. The above conditions will convert all the conformations of the receptor into a single low affinity site. To show both high and low affinity sites of the receptor (typically seen with GPCR agonists), the GTP is removed from the binding buffer. Nonspecific binding was determined experimentally in the presence of 10^−4 M phentolamine. Unbound radioactivity was separated from membrane-bound radioactivity by filtration through Whatman GF/C filter paper. […] Bound radioactivity remaining on the filters was counted on an ICN gamma counter operating at 79.8% efficiency. Data are analyzed using Graphpad Prism.

α1A-AR = target: T2, α1A-AR (Homo sapiens, UniProt P35348); assay: cAMP assay at α1A-AR; assay type: cell-based; set-up: expressed in transfected cells; host or cells: Rat-1 fibroblast cells
T2 sequence (P35348 1-466): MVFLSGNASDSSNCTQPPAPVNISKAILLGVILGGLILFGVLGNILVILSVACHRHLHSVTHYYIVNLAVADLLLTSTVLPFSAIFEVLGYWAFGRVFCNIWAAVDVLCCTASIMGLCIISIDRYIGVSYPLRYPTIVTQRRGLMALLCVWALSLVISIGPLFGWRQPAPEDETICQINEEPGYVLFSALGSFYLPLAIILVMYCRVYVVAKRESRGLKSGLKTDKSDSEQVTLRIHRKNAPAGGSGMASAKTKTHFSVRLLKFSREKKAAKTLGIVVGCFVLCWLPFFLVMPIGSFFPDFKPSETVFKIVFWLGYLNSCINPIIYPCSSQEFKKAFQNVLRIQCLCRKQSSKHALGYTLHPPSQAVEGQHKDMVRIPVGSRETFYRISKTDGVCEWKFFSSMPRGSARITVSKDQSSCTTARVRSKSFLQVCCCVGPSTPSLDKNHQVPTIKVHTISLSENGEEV
Procedure: (§1) cAMP assay: Cells expressing a single α1-adrenergic receptor subtype are washed and re-plated into 24-well plates in DMEM media without serum at approximately 2.4×10^4 cells/well. Cells are allowed to rest till the next day in a CO2 incubator at 37° C. The cells are washed twice with DMEM (no serum), then 1 ml of DMEM is added to each well. Cells are pre-incubated for 45 mins-1 hour at 37° C. in a CO2 incubator with 10 uM propranolol, followed by 100 uM IBMX for 30 minutes. Final DMSO concentration is at 0.05%. Norepinephrine or epinephrine is added in a dose response (1 dose per well) in addition to one of the Compounds 1-10 at one concentration (i.e. 10^−5M). Cells are incubated for another 30 mins at 37° C. in a CO2 incubator. The reaction is concluded by aspirating the media and adding 0.1M HCL. The mixture is incubated for 20 mins at room temperature. The cells are scraped and suspended until homogenous. The mixture is centrifuged at 1000 g for 10 mins and the supernatant assayed the same day according to a manufacturer's cAMP kit (Cayman Select Cyclic AMP EIA kit #501040).

α1D-AR [2] = target: T1, α1D-AR; assay: cAMP assay at α1D-AR; assay type: cell-based
Procedure: as §1

CC(C)Cc1c(OCC2=NCCN2)cccc1N(C)S(C)(=O)=O [Compound 3, N-[3-(4,5-Dihydro-1H-imidazol-2-ylmethoxy)-2-isobutyl-phenyl]-N-methyl-methanesulfonamide]
interaction with α2-ARs (α2-ARs): does not interact with high affinity
specific binding at the α1D-AR (α1D-AR [1]): little, if any, specific binding; also recorded: no affinity
PAM activity / PAM type (α1A-AR): Type I PAM
dose at which potentiation of norepinephrine cAMP response is maximal (α1A-AR): 10^−8 M
effect on epinephrine-mediated cAMP response at the α1A-AR (α1A-AR; 10^−5M to 10^−7M of compound): no effect
effect on norepinephrine-mediated cAMP response at the α1A-AR (α1A-AR; 10^−5M to 10^−9M of compound): potentiates
stimulation of cAMP by the compound by itself (α1A-AR; compound alone): cannot stimulate
potentiation of the cAMP response of norepinephrine (α1A-AR; dose-response of compound): 50%
effect on norepinephrine cAMP response at the α1D-AR (α1D-AR [2]): no effect
